Assay results reported in US20200079757A1, “COMPOUNDS FOR THE TREATMENT OF RESPIRATORY DISEASES” (THE UNIVERSITY OF MELBOURNE, priority 2017, published 2020).

Key:
[1] = test system: PAI-1 gene expression in BEAS-2B cells; test: TNF-α and TGF-β induced PAI-1 gene expression in BEAS-2B cells (RT-qPCR); type: cell-based; conditions: for TNFa stimulated PAI-1 expression: 30 min pretreatment 1-10 μM, n=1, similar potency and maxima
Experimental: The primary assay for the activity of the novel CK1δ/ε inhibitors is the modulation of gene expression in the airway epithelial cell line, the BEAS-2B cells. The assay is conducted under several conditions. Generally, TGF-β or TNF-α is used to elicit fibrogenic or inflammatory genes, respectively. The agents are added at a concentration of 10 μM, or at the indicated concentrations for a period of 30 min prior to the addition of TGF-β/TNF-α which are incubated for a further 20 hours before the addition, in some experiments of the glucocorticoid, dexamethasone (Dex, 30 nM) for the final 4 hours of the experiment, prior to harvest of cellular RNA to measure by RT-qPCR the levels of mRNA of marker genes for inflammation and fibrogenesis. The inhaled corticosteroid (ICS), budesonide is also used in some experiments. Furthermore, the supernatants are harvested at the end of the incubation periods in selected experiments to measure the levels of CSF-2 or IL-8 by ELISA as described in (Tran et al. (2005) British Journal of Pharmacology, 145, 123-131). Prior to experimentation, BEAS-2B and A549 cells were incubated in serum-free DMEM containing 0.25% bovine serum albumin (BSA) and insulin-transferrin-selenium—containing supplement (Monomed A; CSL, Parkville, Melbourne, Australia). Where indicated, cells were treated with one of the series of synthesised compounds (0.3-10 μM) prior to exposure to 100 pM TGF-β1 (R&D Systems, Minneapolis, Minn.) or 300 pM bFGF (Promega, Madison, Wis.). Total RNA was extracted from cultured cells using illustra RNAspin Mini RNA Isolation Kit (GE Healthcare). RNA extracts were reverse-transcribed into cDNA using High-Capacity RNA-to-cDNA Kit (Applied Biosystems). Real-time PCR was then performed using a QuantStudio 6 Flex Real-Time PCR System using iTaq Universal SYBR green supermix and the following thermal protocol: 50° C. (2 min), 95° C. (10 min), then 40 cycles of 95° C. (15 sec), 60° C. (1 min). The threshold cycle (CT) values determined for target genes were normalized against those obtained for 18S ribosomal RNA (18S rRNA), which was included as internal control. The generation of specific PCR products was confirmed by dissociation curve analysis. In the same experiment as described in FIG. 1, the expression of the fibrogen plasminogen activator inhibitor-1 was measured (see FIG. 2). The levels of this gene are increased by both TGF-β and by Dex and they synergise when added together. The CK1 inhibitors concentration-dependently reduce the effects of each of the stimuli and further reduce baseline expression. Their potency in this effect is similar, regardless of the condition being considered. In a separate experiment BEAS-2B cells were exposed to TNF-α with(out) 30 min pretreatment with either SS9-010 or PF670462 (1-10 μM). RNA was then extracted and analyzed by RT-qPCR. Each agent inhibited TNFa stimulated PAI-1 expression with similar potency and maxima (see FIG. 3). Data are presented as mean±SD for n=1 (three technical replicates).

[2] = test system: Col 1A gene expression in BEAS-2B cells; test: TNFα and TGFβ induced Col 1A gene expression in BEAS-2B cells (RT-qPCR); type: cell-based
Experimental: The primary assay for the activity of the novel CK1δ/ε inhibitors is the modulation of gene expression in the airway epithelial cell line, the BEAS-2B cells. The assay is conducted under several conditions. Generally, TGF-β or TNF-α is used to elicit fibrogenic or inflammatory genes, respectively. The agents are added at a concentration of 10 μM, or at the indicated concentrations for a period of 30 min prior to the addition of TGF-β/TNF-α which are incubated for a further 20 hours before the addition, in some experiments of the glucocorticoid, dexamethasone (Dex, 30 nM) for the final 4 hours of the experiment, prior to harvest of cellular RNA to measure by RT-qPCR the levels of mRNA of marker genes for inflammation and fibrogenesis. The inhaled corticosteroid (ICS), budesonide is also used in some experiments. Furthermore, the supernatants are harvested at the end of the incubation periods in selected experiments to measure the levels of CSF-2 or IL-8 by ELISA as described in (Tran et al. (2005) British Journal of Pharmacology, 145, 123-131).
Prior to experimentation, BEAS-2B and A549 cells were incubated in serum-free DMEM containing 0.25% bovine serum albumin (BSA) and insulin-transferrin-selenium—containing supplement (Monomed A; CSL, Parkville, Melbourne, Australia). Where indicated, cells were treated with one of the series of synthesised compounds (0.3-10 μM) prior to exposure to 100 pM TGF-β1 (R&D Systems, Minneapolis, Minn.) or 300 pM bFGF (Promega, Madison, Wis.).
Total RNA was extracted from cultured cells using illustra RNAspin Mini RNA Isolation Kit (GE Healthcare). RNA extracts were reverse-transcribed into cDNA using High-Capacity RNA-to-cDNA Kit (Applied Biosystems). Real-time PCR was then performed using a QuantStudio 6 Flex Real-Time PCR System using iTaq Universal SYBR green supermix and the following thermal protocol: 50° C. (2 min), 95° C. (10 min), then 40 cycles of 95° C. (15 sec), 60° C. (1 min). The threshold cycle (CT) values determined for target genes were normalized against those obtained for 18S ribosomal RNA (18S rRNA), which was included as internal control. The generation of specific PCR products was confirmed by dissociation curve analysis.

SMILES	TNFa stimulated PAI-1 expression [1]	PAI-1 mRNA level, TGF-β ([1]; agent 3 μM)	PAI-1 mRNA level, TNF-α (n = 2) ([1]; agent 3 μM)	PAI-1 mRNA level, TGF-β ([1]; agent 10 μM)	PAI-1 mRNA level, TNF-α (n = 2) ([1]; agent 10 μM)	PAI-1 mRNA level, vehicle (no stimulus) ([1]; agent 10 μM)	Col1A mRNA level, TGF-β ([2]; agent 3 μM)	Col1A mRNA level, TNF-α (n = 2) ([2]; agent 3 μM)	Col1A mRNA level, vehicle (no stimulus) ([2]; agent 3 μM)	Col1A mRNA level, TGF-β ([2]; agent 10 μM)	Col1A mRNA level, TNF-α (n = 2) ([2]; agent 10 μM)	Col1A mRNA level, vehicle (no stimulus) ([2]; agent 10 μM)
Cl.Nc1nccc(-c2c(-c3ccc(F)cc3)ncn2C2CCCCC2)n1 [PF670462, 4-(1-Cyclohexyl-4-(4-fluorophenyl)-1H-imidazol-5-yl)pyrimidin-2-amine hydrochloride, reference compound]	inhibited	1.30 ± 0.18 fold control	0.74 fold control	1.64 ± 0.27 fold control	0.47 fold control	0.26 ± 0.04 fold control	1.91 ± 0.32 fold control	0.52 fold control	0.47 ± .04 fold control	1.53 ± 0.33 fold control	0.65 fold control	0.65 ± 0.02 fold control
CNc1nccc(-c2c(-c3ccc(F)cc3)ncn2C2CCCCC2)n1 [SS9-010, 4-(1-Cyclohexyl-4-(4-fluorophenyl)-1H-imidazol-5-yl)-N-methylpyrimidin-2-amine]	inhibited	–	–	0.64 ± 0.05 fold control	0.43 fold control	0.18 ± 0.00 fold control	–	–	–	1.09 ± 0.10 fold control	0.37 fold control	0.30 ± 0.02 fold control
CCCCCCCCN1CCC(n2cnc(-c3ccc(F)cc3)c2-c2ccnc(N)n2)CC1 [SS8-058, 4-(4-(4-Fluorophenyl)-1-[1-octylpiperidin-4-yl]-1H-imidazol-5-yl)pyrimidin-2-amine]	–	–	–	9.14 ± 1.23 fold control	0.91 fold control	0.37 ± 0.04 fold control	–	–	–	9.68 ± 1.25 fold control	1.11 fold control	0.91 ± 0.19 fold control
